This series concerns the target CYP2D6 (Homo sapiens, UniProt P10635). The experiment in a line: Inhibition of CYP2D6 in human liver microsomes. On the technique in general: Liver microsomes are a subcellular fraction often used to study metabolism.

Sequence of CYP2D6 (P10635 whole entry): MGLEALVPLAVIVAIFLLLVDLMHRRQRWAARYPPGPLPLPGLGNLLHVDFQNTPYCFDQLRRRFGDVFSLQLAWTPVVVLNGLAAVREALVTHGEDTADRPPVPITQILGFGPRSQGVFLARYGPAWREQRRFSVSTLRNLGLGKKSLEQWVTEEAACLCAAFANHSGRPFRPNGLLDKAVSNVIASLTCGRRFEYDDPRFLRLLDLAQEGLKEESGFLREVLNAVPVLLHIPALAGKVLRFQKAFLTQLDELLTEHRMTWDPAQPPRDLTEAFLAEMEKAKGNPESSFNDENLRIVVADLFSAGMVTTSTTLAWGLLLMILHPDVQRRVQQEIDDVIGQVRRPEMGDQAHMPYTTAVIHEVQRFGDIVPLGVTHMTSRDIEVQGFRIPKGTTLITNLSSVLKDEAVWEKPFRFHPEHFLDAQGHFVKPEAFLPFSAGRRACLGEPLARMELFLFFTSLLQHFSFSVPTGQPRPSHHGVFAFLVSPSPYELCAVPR

Broadly, the IC50 is the concentration needed to halve the response being measured. Low readings indicate greater potency, high ones weaker potency. Take `CCC(C#N)(CC)c1ccc(CCC2(C3CCCC3)CC(=O)C(Cc3nc4nc(C)cc(C)n4n3)C(=O)O2)cc1F` (configuration not stated) [2-[4-(2-{2-cyclopentyl-5-[(5,7-dimethyl[1,2,4]triazolo[1,5-a]pyrimidin-2-yl)methyl]-4-hydroxy-6-oxo-3,6-dihydro-2H-pyran-2-yl}ethyl)-2-fluorophenyl]-2-ethylbutanenitrile]: the IC50 is above 6 µM.

Take `Cc1cc(C)n2nc(CC3C(=O)CC(CCc4ccc(C(C)(C)O)c(F)c4)(C4CCCC4)OC3=O)nc2n1` (configuration not stated) [6-cyclopentyl-3-[(5,7-dimethyl[1,2,4]triazolo[1,5-a]pyrimidin-2-yl)methyl]-6-{2-[3-fluoro-4-(1-hydroxy-1-methylethyl)phenyl]ethyl}-4-hydroxy-5,6-dihydro-2H-pyran-2-one]: the IC50 is above 6 µM.

These data come from BindingDB's records for doi:10.1021/jm8014537 (Pfizer, 2010).
